Like-named read-outs stand apart in the source and are kept apart here.
Experiments:
BxPc3 = assay: EIDD-2749 cytotoxicity; assay type: cell-based; details: BxPc3 cells
MDCK cells = details: dog
Flu A H5N1 (Low Path) = assay: microbe, parasite or virus in culture; assay type: cell-based, influenza A virus; details: Influenza A virus, H5N1, MDCK
Heartland virus = assay: microbe, parasite or virus in culture; assay type: cell-based; details: Vero
HG23 cells = assay: Cytotoxicity (CC50) run with the norovirus assay
ZIKV = assay: microbe, parasite or virus in culture; assay type: cell-based, Zika virus; details: Zika virus, Vero 76
Vero E6 cells = details: African green monkey
Vero cells = details: African green monkey
Marburg virus = assay: microbe, parasite or virus in culture; assay type: cell-based; details: Filoviridae, Vero
EEEV = assay: microbe, parasite or virus in culture; assay type: cell-based, Eastern equine encephalitis virus
HRV-14 = assay: microbe, parasite or virus in culture; assay type: cell-based, human rhinovirus
VEEV = assay: microbe, parasite or virus in culture; assay type: cell-based, Venezuelan equine encephalitis virus; details: Venezuelan equine encephalitis virus
MA-104 cells = details: African green monkey
Plasma stability [1] = details: rat plasma, drug 1.00 μM
Influenza A H1N1 = assay: microbe, parasite or virus in culture; assay type: cell-based, influenza A virus; details: Influenza A virus, H1N1, MDCK
[2] = male, Sprague-Dawley, rat, microsomes, pH 7.4
Huh-7 cells = details: human
Plasma stability [3] = details: mouse plasma, drug 1.00 μM
[4] = female, ICR (CD-1), mouse, in vivo
CEM = assay: EIDD-2749 cytotoxicity; assay type: cell-based; details: CEM cells
A-204 = assay: EIDD-2749 cytotoxicity; assay type: cell-based; details: A-204 cells
Human Norovirus = assay: microbe, parasite or virus in culture; assay type: cell-based; details: HG23
[5] = tested on: Severe fever thrombocytopenia syndrome virus; assay: organism not typed; assay type: cell-based; details: Vero
EBOV = assay: microbe, parasite or virus in culture; assay type: cell-based, Ebola virus; details: Zaire ebolavirus, Vero
Flu B = assay: microbe, parasite or virus in culture; assay type: cell-based, influenza B virus; details: Influenza B virus, MDCK
Huh-7 = assay: EIDD-2749 cytotoxicity; assay type: cell-based, human; details: Huh-7 cells
Marpol virus = assay: organism not typed; assay type: cell-based
Parainfluenza virus 3 = assay: organism not typed; assay type: cell-based
Punta Toro virus = assay: microbe, parasite or virus in culture; assay type: cell-based
[6] = CD-1, mouse, microsomes
Junin virus = assay: microbe, parasite or virus in culture; assay type: cell-based; details: for EC50: Junin virus strain Candid #1, Vero cells
Poliovirus = assay: microbe, parasite or virus in culture; assay type: cell-based; details: Vero 76 cells
WEEV = assay: microbe, parasite or virus in culture; assay type: cell-based, Western equine encephalitis virus; details: Vero76 cells
MERS = assay: microbe, parasite or virus in culture; assay type: cell-based, MERS coronavirus; details: Middle East respiratory syndrome-related coronavirus, Vero 76
Plasma stability [7] = details: human plasma, drug 1.00 μM, 37° C.
Murine Norovirus = assay: microbe, parasite or virus in culture; assay type: cell-based; details: Norwalk virus, RAW264.7
Lassa fever virus = assay: organism not typed; assay type: cell-based; details: Vero
Vero = assay: EIDD-2749 cytotoxicity; assay type: cell-based, African green monkey; details: Vero cells
La Crosse virus = assay: microbe, parasite or virus in culture; assay type: cell-based

O=c1ccn([C@@H]2O[C@](F)(CO)[C@@H](O)[C@H]2O)c(=O)[nH]1 [EIDD-2749, 4′-fluorouridine]
CC50 (BxPc3): > 400 µM | CC50 (MDCK cells): > 380 µM | EC50 (Flu A H5N1 (Low Path)): < 380 nM | EC90 (Heartland virus): 122 µM | CC50 (HG23 cells): 100 µM | EC90 (ZIKV): > 380 µM | CC50 (Vero E6 cells): > 380 µM | CC50 (Vero cells): > 380 µM | EC50 (Marburg virus): > 380 µM | EC50 (EEEV; EEEV strain FL93-939, Vero76 cells): > 380 µM | EC50 (EEEV; Eastern equine encephalitis virus, Vero 76, EEEV strain FL93-939, Vero76 cells): 380 µM | EC50 (HRV-14): 1140 nM | EC50 (HRV-14; Rhinovirus B, HRV14): 1220 nM | EC90 (VEEV; Vero 76): 213 µM | EC50 (VEEV; Vero 76, VEEV strain TC-83, Vero 76 cells): 7.6 µM | CC50 (MA-104 cells): > 380 µM | half-life (Plasma stability [1]): 22 min | EC50 (Influenza A H1N1): < 380 nM | half-life [2]: 25 min | CC50 (Huh-7 cells): > 380 µM | half-life (Plasma stability [3]): 37 min | AUC-INF ([4]; ip, 10 mg/kg): 19.6 nmol·h/mL | Cmax ([4]; ip, 10 mg/kg): 7.7 ± 2.3 µM | t1/2 ([4]; ip, 10 mg/kg): 6.3 h | AUC-INF ([4]; po, 50 mg/kg): 232.3 nmol·h/mL | Bioavailability ([4]; po, 50 mg/kg): 236% | Cmax ([4]; po, 50 mg/kg): 35.2 ± 9.7 µM | t1/2 ([4]; po, 50 mg/kg): 8.3 h | AUC-INF ([4]; po, 150 mg/kg): 392.3 nmol·h/mL | Bioavailability ([4]; po, 150 mg/kg): 133% | Cmax ([4]; po, 150 mg/kg): 43.6 ± 2.8 µM | t1/2 ([4]; po, 150 mg/kg): 8.5 h | AUC-INF ([4]; po, 500 mg/kg): 755.2 nmol·h/mL | Bioavailability ([4]; po, 500 mg/kg): 77.0% | Cmax ([4]; po, 500 mg/kg): 76 ± 15.3 µM | t1/2 ([4]; po, 500 mg/kg): 12.9 h | CC50 (CEM): 107 µM | CC50 (A-204): > 400 µM | EC50 (Human Norovirus): 2700 nM | EC90 (Human Norovirus): 9.3 µM | EC90 [5]: > 380 µM | EC50 (EBOV): 1520 nM | EC90 (EBOV): 22 µM | EC50 (Flu B): < 380 nM | CC50 (Huh-7): > 400 µM | EC50 (Marpol virus): 57 µM | EC50 (Marpol virus; Vero C1008): 95 µM | EC50 (Parainfluenza virus 3): 60.8 µM | EC50 (Parainfluenza virus 3; MA104): 98.8 µM | EC50 (Punta Toro virus): 91.2 µM | EC50 (Punta Toro virus; Punta Toro virus, Vero 76): 72.2 µM | half-life [6]: 27 min | EC50 (Junin virus): 1290 nM | EC90 (Junin virus; Mammarenavirus juninense, Vero): 380 nM | EC50 (Junin virus; Mammarenavirus juninense, Vero): 1860 nM | EC50 (Poliovirus; Enterovirus C, Vero 76, Poliovirus strain Mahoney): 12.2 µM | EC50 (Poliovirus; Poliovirus strain Mahoney): 11.8 µM | EC50 (WEEV; WEEV strain California): 11.8 µM | EC50 (WEEV; Western equine encephalitis virus, Vero 76, WEEV strain California): 9.88 µM | EC50 (MERS): > 380 µM | half-life (Plasma stability [7]): 26 min | EC50 (Murine Norovirus): 2200 nM | EC90 (Murine Norovirus): 7.2 µM | EC50 (Lassa fever virus): 380 nM | EC90 (Lassa fever virus): 9 µM | CC50 (Vero): > 400 µM | EC50 (La Crosse virus): < 380 nM

— patent US20260124226A1 (priority 2023, published 2026)
